Data from publication PMC8991007, “Benzylic Dehydroxylation of Echinocandin Antifungal Drugs Restores Efficacy against Resistance Conferred by Mutated Glucan Synthase” (Journal of the American Chemical Society, 2022).
*1 amine or outer side, *2 acyl side, *3 side chain or, on linkers, in order; H or OH if unused. Where a SMILES comes first, the peptide text is derived from it. Bridges are numbered along the chain shown (N, C = ends). [ ]: non-standard residue; d: D form. The star is where a group is joined. Orn(4R-OH,5R-OCH2CH2NMe3+) = C[N+](C)(C)CCO[C@@H](N[*:3])[C@H](O)C[C@H](N[*:1])C(=O)[*:2]; pTerphenylCO(4''-OnC5H11) = CCCCCOc1ccc(-c2ccc(-c3ccc(C(=O)*)cc3)cc2)cc1; hTyr(3S-OH,4S-OH) = N[C@H](C(=O)O)[C@H](O)[C@@H](O)c1ccc(O)cc1; Pro(3S-OH,4S-Me) = C[C@H]1CN[C@H](C(=O)O)[C@H]1O; hTyr(3R-OH) = N[C@H](C(=O)O)[C@H](O)Cc1ccc(O)cc1; Hyp = O=C(O)[C@@H]1C[C@@H](O)CN1

Experiments:
Hs 578T = experiment: Phenotypic viability assay of GFP reporter cell line; assay type: cell-based; conditions: Homo sapiens; Hs 578T expressing GFP, 24 h, mean ± SD
Protocol: (§1) In this analysis, we used HCT-116, a human colorectal carcinoma cell line; UACC-62, a human melanoma cell line; Hs 578T, a human mammary gland carcinoma cell line, and SF-295, a human glioblastoma cell line. […] The highest concentration of the echinocandins used for the cell viability tests was determined based on the reported maximal plasma concentrations (Cmax) of ANF and RZF measured in humans. A Cmax of approximately 7 μM was measured during a pharmacokinetic study of ANF in patients with candidemia or invasive candidiasis who were treated with a 200 mg loading dose on day 1, followed by a daily 100 mg maintenance dose.[64]
(§2) Human cell lines HCT-116, UACC-62, Hs 578T, and SF-295 were obtained from the Life Sciences Core Facilities of the Nancy & Stephen Grand Israel National Center for Personalized Medicine. Cell lines were grown in an RPMI medium (Gibco, cat. no. 21875-034) supplemented with 10% fetal calf serum (Biological Industries, cat. no. 04-007-1A), Pen/Strep (Biological Industries, cat. no. 03-031-1B), and glutamine (Biological Industries, cat. no. 03-020-1B). GFP was introduced into cells using TALENS according to a previously reported protocol.[73] GFP cells were selected by FACS and propagated.
(§3) Assay-ready plates were designed using in-house software (CHEMPION, INCPM software development team) and prepared in 384-well Greiner plates (cat. no. 781091) using an Echo 555 Acoustic Liquid Handler (Labcyte). The final DMSO concentration in all samples was 0.4%. Prior to the experiment, cells were trypsinized and counted using a Countess cytometer. Cells were then diluted to 40,000 cells/mL in a fresh medium. Cells (50 μL/well; 2000 cells/well) were then dispensed with a Thermo Combi dispenser into plates containing predispensed compounds. After 30 min at room temperature to ensure uniform adherence of cells, the plates were moved to an automated incubator (Liconic STX44) and incubated at 37 °C. An automated confocal microscope with a 4× S Fluor lens (Molecular Devices ImageExpress) was used to acquire images of GFP-expressing cells after 24 h of incubation. Images were then analyzed using MetaExpress with a custom protocol (Custom Module Editor), and data were annotated and normalized using Genedata Screener software. Final normalized data were then loaded into CDD Vault software for comparative data visualization.

HCT-116 = experiment: cells; assay type: cell-based; conditions: Homo sapiens; HCT-116 expressing GFP, 24 h, mean ± SD; read-out: IC50 (cell viability)
Protocol: as §1, §2, §3

UACC-62 = experiment: cells; assay type: cell-based; conditions: Homo sapiens; UACC-62 expressing GFP, 24 h, mean ± SD; read-out: IC50 (cell viability)
Protocol: as §1, §2, §3

SF-295 = experiment: cells; assay type: cell-based; conditions: Homo sapiens; SF-295 expressing GFP, 24 h, mean ± SD; read-out: IC50 (cell viability)
Protocol: as §1, §2, §3

C. albicans = experiment: Minimum inhibitory concentration broth double-dilution assay; assay type: cell-based, Candida albicans; conditions: for MIC: 24 h, 30 °C
Protocol: (§4) The antifungal activities of compounds 1 and 2 were evaluated against a panel of 50 strains of C. albicans and C. glabrata (Table S4), including echinocandin-resistant strains that were constructed by introducing mutations within and near the defined hotspots in the FKS1 and/or FKS2 genes.[27] To evaluate antifungal activity, we determined MIC values. The MIC was defined as the lowest drug concentration that led to turbidity (measured at 600 nm) of less than or equal to 35% of that of the untreated culture. As controls, we tested CSF, MCF, ANF, and RZF.
(§5) All of the tested compounds were dissolved in anhydrous DMSO to a concentration of 5 mg/mL. Candida strains were streaked from a glycerol stock onto YPAD agar plates and grown for 24 h at 30 °C. Colonies were suspended in 1 mL of PBS and diluted to an O.D. of 0.01 at 600 nm with YPAD broth and added into flat-bottom 96-well microplates (Corning) containing a gradient of twofold dilutions per tested compound with concentrations ranging from 64 to 0.0009 μg/mL. Control wells with no drug and blank wells without yeast cells containing YPAD only were also prepared. […] Each concentration was tested in triplicate, and results were confirmed by at least two independent sets of experiments.

C. glabrata = experiment: as above; assay type: cell-based, Candida glabrata; conditions: 24 h, 30 °C
Protocol: as §4, §5

[1] = #2 C. albicans DPL1015 (DP-A15)
[2] = #3 C. albicans DPL1016 (DP-A15-10)

Work on `CCCCCOc1ccc(-c2ccc(-c3ccc(C(=O)N[C@H]4C[C@@H](O)[C@@H](OCC[N+](C)(C)C)NC(=O)[C@@H]5[C@@H](O)[C@@H](C)CN5C(=O)[C@H]([C@@H](C)O)NC(=O)[C@H]([C@H](O)Cc5ccc(O)cc5)NC(=O)[C@@H]5C[C@@H](O)CN5C(=O)[C@H]([C@@H](C)O)NC4=O)cc3)cc2)cc1` [Compound 2, dehydroxy-RZF] ({pTerphenylCO(4''-OnC5H11)}-[Orn(4R-OH,5R-OCH2CH2NMe3+)]T[Hyp][hTyr(3R-OH)]T[Pro(3S-OH,4S-Me)]; lactam 1-C) yielded an IC50 (Hs 578T) of over 40 µM, an IC50 (HCT-116) of 34.1 ± 11.5 µM and an IC50 (UACC-62) of 29.2 ± 5.2 µM. It also gave an IC50 (SF-295) of 32.4 ± 6.7 µM, an MIC (C. albicans; #1 C. albicans Sc5314) of 0.015 µg/mL and an MIC (C. albicans; [1]) of 0.062 µg/mL. The MIC (C. albicans; [2]) was 2 µg/mL, the MIC (C. albicans; #4 C. albicans T-2068 (DP-C42)) was 0.5 µg/mL and the MIC (C. albicans; #5 C. albicans T-2069 (DP-85)) was 0.5 µg/mL. It also gave an MIC (C. albicans; #6 C. albicans (DP-89)) of 1 µg/mL, an MIC (C. albicans; #7 C. albicans T-2076 (DP-194)) of 1 µg/mL and an MIC (C. albicans; #8 C. albicans T-2077 (DP-205)) of 0.25 µg/mL. The “MIC differences between RZF and dehydroxy derivative 2 (ratio MIC (RZF)/MIC (2))” value (C. albicans; C. albicans strains 5 and 6, Fks1 serine 645 to phenylalanine or tyrosine) was “at least 8 fold”, the MIC (C. glabrata; #9 C. glabrata EF1620) was 0.015 µg/mL and the MIC (C. glabrata; #10 C. glabrata TGL00277) was 16 µg/mL. It also gave an MIC (C. glabrata; #11 C. glabrata TGL00275) of 8 µg/mL, an MIC (C. glabrata; #12 C. glabrata CST78) of 0.004 µg/mL and an MIC (C. glabrata; #13 C. glabrata TGL00265) of 2 µg/mL. It also gave an MIC (C. glabrata; #14 C. glabrata TGL00264) of 32 µg/mL, an MIC (C. glabrata; #15 C. glabrata TGL00263) of 2 µg/mL and an MIC (C. glabrata; #16 C. glabrata TGL00065) of 8 µg/mL. For the same molecule, the MIC (C. glabrata; #17 C. glabrata CST34) was 0.004 µg/mL, the MIC (C. glabrata; #18 C. glabrata TGL00258) was 8 µg/mL and the MIC (C. glabrata; #19 C. glabrata TGL00256) was 0.25 µg/mL. For the same molecule, the MIC (C. glabrata; #20 C. glabrata TGL00107) was 16 µg/mL, the MIC (C. glabrata; #21 C. glabrata TGL00056) was over 64 µg/mL and the MIC (C. glabrata; #22 C. glabrata M12) was 0.002 µg/mL. The MIC (C. glabrata; #23 C. glabrata TGL00270) was 4 µg/mL, the MIC (C. glabrata; #24 C. glabrata TGL00269) was 0.063 µg/mL and the MIC (C. glabrata; #25 C. glabrata TGL00268) was over 64 µg/mL. The MIC (C. glabrata; #26 C. glabrata TGL00268) was over 64 µg/mL, the MIC (C. glabrata; #27 C. glabrata EB0911) was 0.004 µg/mL and the MIC (C. glabrata; #28 C. glabrata TGL00261) was 1 µg/mL. The MIC (C. glabrata; #29 C. glabrata TGL00109) was 64 µg/mL, the MIC (C. glabrata; #30 C. glabrata TGL00259) was 8 µg/mL and the MIC (C. glabrata; #31 C. glabrata EF1237) was 0.002 µg/mL. It also gave an MIC (C. glabrata; #36 C. glabrata F15) of 0.004 µg/mL, an MIC (C. glabrata; #38 C. glabrata CBS138 (ATCC 2001)) of 0.008 µg/mL and an MIC (C. glabrata; #41 C. glabrata P35_2) of 0.004 µg/mL. The MIC (C. glabrata; #43 C. glabrata SLL2glab) was 0.008 µg/mL and the MIC (C. glabrata; #46 C. glabrata BG2) was 0.008 µg/mL.
Work on `CCCCCOc1ccc(-c2ccc(-c3ccc(C(=O)N[C@H]4C[C@@H](O)[C@@H](OCC[N+](C)(C)C)NC(=O)[C@@H]5[C@@H](O)[C@@H](C)CN5C(=O)[C@H]([C@@H](C)O)NC(=O)[C@H]([C@H](O)[C@@H](O)c5ccc(O)cc5)NC(=O)[C@@H]5C[C@@H](O)CN5C(=O)[C@H]([C@@H](C)O)NC4=O)cc3)cc2)cc1` [RZF, rezafungin] ({pTerphenylCO(4''-OnC5H11)}-[Orn(4R-OH,5R-OCH2CH2NMe3+)]T[Hyp][hTyr(3S-OH,4S-OH)]T[Pro(3S-OH,4S-Me)]; lactam 1-C) yielded an IC50 (Hs 578T) of over 40 µM, an IC50 (HCT-116) of over 40 µM and an IC50 (UACC-62) of over 40 µM. For the same molecule, the IC50 (SF-295) was over 40 µM, the MIC (C. albicans; #1 C. albicans Sc5314) was 0.015 µg/mL and the MIC (C. albicans; [1]) was 0.25 µg/mL. It also gave an MIC (C. albicans; [2]) of 4 µg/mL, an MIC (C. albicans; #4 C. albicans T-2068 (DP-C42)) of 2 µg/mL and an MIC (C. albicans; #5 C. albicans T-2069 (DP-85)) of 8 µg/mL. The MIC (C. albicans; #6 C. albicans (DP-89)) was 8 µg/mL, the MIC (C. albicans; #7 C. albicans T-2076 (DP-194)) was 1 µg/mL and the MIC (C. albicans; #8 C. albicans T-2077 (DP-205)) was 1 µg/mL. The MIC (C. glabrata; #9 C. glabrata EF1620) was 0.015 µg/mL, the MIC (C. glabrata; #10 C. glabrata TGL00277) was 64 µg/mL and the MIC (C. glabrata; #11 C. glabrata TGL00275) was 16 µg/mL. It also gave an MIC (C. glabrata; #12 C. glabrata CST78) of 0.008 µg/mL, an MIC (C. glabrata; #13 C. glabrata TGL00265) of 16 µg/mL and an MIC (C. glabrata; #14 C. glabrata TGL00264) of 32 µg/mL. The MIC (C. glabrata; #15 C. glabrata TGL00263) was 32 µg/mL, the MIC (C. glabrata; #16 C. glabrata TGL00065) was over 64 µg/mL and the MIC (C. glabrata; #17 C. glabrata CST34) was 0.008 µg/mL. For the same molecule, the MIC (C. glabrata; #18 C. glabrata TGL00258) was over 64 µg/mL, the MIC (C. glabrata; #19 C. glabrata TGL00256) was 4 µg/mL and the MIC (C. glabrata; #20 C. glabrata TGL00107) was over 64 µg/mL. The MIC (C. glabrata; #21 C. glabrata TGL00056) was over 64 µg/mL, the MIC (C. glabrata; #22 C. glabrata M12) was 0.008 µg/mL and the MIC (C. glabrata; #23 C. glabrata TGL00270) was over 64 µg/mL. The MIC (C. glabrata; #24 C. glabrata TGL00269) was 1 µg/mL, the MIC (C. glabrata; #25 C. glabrata TGL00268) was over 64 µg/mL and the MIC (C. glabrata; #26 C. glabrata TGL00268) was over 64 µg/mL. For the same molecule, the MIC (C. glabrata; #27 C. glabrata EB0911) was 0.015 µg/mL, the MIC (C. glabrata; #28 C. glabrata TGL00261) was 16 µg/mL and the MIC (C. glabrata; #29 C. glabrata TGL00109) was 64 µg/mL. The MIC (C. glabrata; #30 C. glabrata TGL00259) was over 64 µg/mL.
